What all share (type): biochemical
One assay addresses T1, human GST-CLK1 (129-end) (Homo sapiens, UniProt P49759).
T1 construct: purified human GST-CLK1 (129-end, Signalchem) enzyme; GST; purchased Signalchem
Kind of assay: GST-CLK1 enzyme inhibition, ADP-Glo kinase assay. As to conditions: ATP 10 uM. In outline: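 GST-CLK1 (129-end, 3 ng) reacted with 10 uM ATP and substrate in 40 mM Tris-HCl pH 7.4, 20 mM MgCl2, 0.5 mg/mL BSA, 50 uM DTT, 1 h at 25° C. ADP-Glo luminescence normalised to solvent control; IC50 from triplicate data.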

For the next assay, the target named is T2, TTK (Homo sapiens, UniProt P33981).
T2 sequence (P33981 1-857): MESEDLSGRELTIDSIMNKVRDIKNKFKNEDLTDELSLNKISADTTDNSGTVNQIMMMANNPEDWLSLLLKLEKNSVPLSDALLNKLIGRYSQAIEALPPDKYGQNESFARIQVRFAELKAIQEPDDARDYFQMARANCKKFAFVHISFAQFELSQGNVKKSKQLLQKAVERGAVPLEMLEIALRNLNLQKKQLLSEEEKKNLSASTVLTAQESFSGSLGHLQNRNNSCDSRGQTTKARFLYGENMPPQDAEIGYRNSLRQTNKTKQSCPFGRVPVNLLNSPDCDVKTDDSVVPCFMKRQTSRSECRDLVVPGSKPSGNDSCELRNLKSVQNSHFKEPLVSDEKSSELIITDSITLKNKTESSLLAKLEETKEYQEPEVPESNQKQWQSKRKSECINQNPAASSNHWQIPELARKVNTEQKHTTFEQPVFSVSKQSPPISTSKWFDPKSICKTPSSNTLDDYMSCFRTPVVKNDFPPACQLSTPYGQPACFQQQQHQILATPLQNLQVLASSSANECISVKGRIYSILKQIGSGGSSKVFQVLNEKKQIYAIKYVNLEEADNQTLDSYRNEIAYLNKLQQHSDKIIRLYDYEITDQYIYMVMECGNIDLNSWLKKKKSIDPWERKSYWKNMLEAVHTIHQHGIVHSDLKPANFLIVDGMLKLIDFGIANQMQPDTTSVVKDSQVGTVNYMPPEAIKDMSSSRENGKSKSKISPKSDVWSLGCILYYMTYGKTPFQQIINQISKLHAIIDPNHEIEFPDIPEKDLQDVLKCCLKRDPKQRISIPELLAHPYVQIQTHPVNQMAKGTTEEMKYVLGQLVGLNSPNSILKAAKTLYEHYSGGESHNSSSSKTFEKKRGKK
Description: TTK enzyme inhibition, ADP-Glo kinase assay. On the set-up: purchased Signalchem T20-10G. As to conditions: ATP 5 μM. How it is done: In order to evaluate the inhibitory activity of the compounds according to the present invention on LRRK2, LRRK2 (G2019S), DYRK1, CLK1 and TTK kinases, the following experiment was performed.
Example compounds were reacted with the purified human TTK (Signalchem #T20-10G) enzyme to evaluate the enzyme inhibitory ability as follows. The reaction buffer was used as the composition of 40 mM Tris-HCl pH7.4, 20 mM MgCl2, 0.1 mg/ml BSA (5× kinase buffer, Signalchem #K03-09) and 50 μM DTT (Signalchem #D86-09B), and the reaction of all test materials was performed on the reaction buffer. The compound was diluted with 10 mM DMSO stock in […] by a serial dilution method, and the enzyme activity was measured at the final compound concentrations of 1, 0.333333, 0.111111, 0.037037, 0.012346, 0.004115, 0.001372, 0.000457, 0.000152, 0.000051 and 0.000017 μM. In the test, the human TTK (7.5 ng) enzyme was reacted with the purified ATP (5 μM, Promega #V6930) and an MBP enzyme substrate (0.2 μg, Signalchem M42-51N) at 25° C. for 4 hours, and then the enzyme activity was identified using the in vitro ADP-Glo™ kinase assay (Promega #V6930). The enzyme activity reaction liquid, an ADP-Glo reaction liquid and an enzyme potency detection solution were reacted in a ratio of 2:2:1, and the degree of inhibition of enzyme activity was measured by luminescence. The degree of inhibition of enzyme activity according to the treatment concentrations of the respective compounds was calculated based on the luminescence degree of the enzyme activity of a solvent control group that was not treated with the compound, where the concentration of each compound to inhibit enzyme activity inhibition by 50% was determined as an IC50 (nM) value and obtained using Prism (Version 8.2, GraphPad) software.
In the table below, the following designations were used for the evaluation of enzyme inhibitory ability.

Assay [1] concerns the target T3, human GST-DYRK1A (full length) (Homo sapiens, UniProt Q13627).
T3 construct: purified human GST-DYRK1A (full length, Thermo scientifics) enzyme; GST; purchased Thermo scientifics
Description: GST-DYRK1A enzyme inhibition, ADP-Glo kinase assay. As to conditions: read-out: DYRK1 IC50. In outline:
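Full-length human GST-DYRK1A (10 ng) incubated with 10 uM ATP and specific substrate for 1 h at 25° C in 40 mM Tris-HCl pH 7.4, 20 mM MgCl2, 0.5 mg/mL BSA, 50 uM DTT. ADP formation read by ADP-Glo luminescence; IC50 (nM) versus solvent control, triplicate.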
On the technique in general: ADP-Glo first removes unused ATP, then detects ADP through luciferase.

Each structure is given as a SMILES string.

T1 sequence (P49759 129-484 limits assumed): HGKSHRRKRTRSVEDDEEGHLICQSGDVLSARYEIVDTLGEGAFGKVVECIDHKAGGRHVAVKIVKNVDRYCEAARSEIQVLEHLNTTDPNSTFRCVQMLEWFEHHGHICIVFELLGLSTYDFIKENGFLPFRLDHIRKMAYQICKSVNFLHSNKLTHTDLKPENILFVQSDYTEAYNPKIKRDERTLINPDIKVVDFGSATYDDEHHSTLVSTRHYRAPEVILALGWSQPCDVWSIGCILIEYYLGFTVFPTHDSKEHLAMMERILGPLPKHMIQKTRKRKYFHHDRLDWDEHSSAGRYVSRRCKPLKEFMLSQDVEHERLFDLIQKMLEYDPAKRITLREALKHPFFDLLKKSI

Take `COc1cc(P2(=O)CCN(C(C)=O)CC2)ccc1Nc1cc(C2CC2)c2c(C(F)(F)F)c[nH]c2n1` [Example 48, 1-(4-(4-((4-cyclopropyl-3-(trifluoromethyl)-1H-pyrrolo[2,3-b]pyridin-6-yl)amino)-3-methoxyphenyl)-4-oxido-1,4-azaphosphinan-1-yl)ethan-1-one]: the IC50 against human GST-CLK1 (129-end) and against TTK was 301 to 1000 nM each time.

In the case of `CCNc1cc(Nc2ccc(C(=O)N3CCC(N4CCOCC4)CC3)c3c2OCO3)nc2[nH]cc(C(F)(F)F)c12` [Example 37, (7-((4-(ethylamino)-3-(trifluoromethyl)-1H-pyrrolo[2,3-b]pyridin-6-yl)amino)benzo[d][1,3]dioxol-4-yl)(4-morpholinopiperidin-1-yl)methanone], the IC50 (against human GST-CLK1 (129-end); in assay [1]) was less than 100 nM each time.

For the molecule `O=C(c1ccc(Nc2cc(C3CC3)c3c(C(F)(F)F)c[nH]c3n2)c2c1OCO2)N1CCC(N2CCOCC2)CC1` [Example 49, (7-((4-cyclopropyl-3-(trifluoromethyl)-1H-pyrrolo[2,3-b]pyridin-6-yl)amino)benzo[d][1,3]dioxol-4-yl)(4-morpholinopiperidin-1-yl)methanone], the IC50 against human GST-CLK1 (129-end) and against TTK was less than 100 nM throughout.

Regarding `O=C(c1ccc(Nc2cc(C3CC3)c3c(C(F)(F)F)c[nH]c3n2)c2c1CCO2)N1CCOCC1` [Example 91, (7-((4-cyclopropyl-3-(trifluoromethyl)-1H-pyrrolo[2,3-b]pyridin-6-yl)amino)-2,3-dihydrobenzofuran-4-yl)(morpholino) methanone], the IC50 against TTK is 301 to 1000 nM.

For `COc1cc(S(=O)(=O)N2CCC(N3CCOCC3)CC2)ccc1Nc1cc(C2CC2)c2c(C#N)c[nH]c2n1` [Example 228, 4-cyclopropyl-6-((2-methoxy-4-((4-morpholinopiperidin-1-yl)sulfonyl)phenyl)amino)-1H-pyrrolo[2,3-b]pyridine-3-carbonitrile], the results for the IC50 on human GST-CLK1 (129-end) and on TTK were 301 to 1000 nM and less than 100 nM, respectively.

Take `N#Cc1c[nH]c2nc(Nc3ccc(C(=O)N4CCOCC4)c4c3OCCO4)cc(C3CC3)c12` [Example 225, 4-cyclopropyl-6-((8-(morpholine-4-carbonyl)-2,3-dihydrobenzo[b] [1,4]dioxin-5-yl)amino)-1H-pyrrolo[2,3-b]pyridine-3-carbonitrile]: the IC50 against human GST-CLK1 (129-end) was 301 to 1000 nM; on TTK it was less than 100 nM.

Regarding `CCNc1cc(Nc2ccc(P3(=O)CCN(C4CC4)CC3)cc2OC)nc2[nH]cc(C(F)(F)F)c12` [Example 206, 1-cyclopropyl-4-(4-((4-(ethylamino)-3-(trifluoromethyl)-1H-pyrrolo[2,3-b]pyridin-6-yl)amino)-3-methoxyphenyl)-1,4-azaphosphinane 4-oxide], the IC50 (against human GST-CLK1 (129-end); in assay [1]) was 301 to 1000 nM throughout.

`CNc1cc(Nc2ccc(S(=O)(=O)N3CCC(N4CCOCC4)CC3)cc2OC)nc2[nH]cc(C(F)(F)F)c12` [Example 184, N^6-(2-methoxy-4-((4-morpholinopiperidin-1-yl)sulfonyl)phenyl)-N^4-methyl-3-(trifluoromethyl)-1H-pyrrolo[2,3-b]pyridine-4,6-diamine] came in with an IC50 against TTK of less than 100 nM.

As to `CCNc1cc(Nc2ccc(P3(=O)CCN(C4CCOCC4)CC3)cc2OC)nc2[nH]cc(C(F)(F)F)c12` [Example 94, 4-(4-((4-(ethylamino)-3-(trifluoromethyl)-1H-pyrrolo[2,3-b]pyridin-6-yl)amino)-3-methoxyphenyl)-1-(tetrahydro-2H-pyran-4-yl)-1,4-azaphosphinane 4-oxide], the IC50 (against human GST-CLK1 (129-end); in assay [1]) was 101 to 300 nM each time.

For the molecule `COc1cc(S(=O)(=O)N2CCC(N3CCOCC3)CC2)ccc1Nc1cc(NCCS(C)(=O)=O)c2c(C(F)(F)F)c[nH]c2n1` [Example 194, N^6-(2-methoxy-4-((4-morpholinopiperidin-1-yl)sulfonyl)phenyl)-N^4-(2-(methylsulfonyl)ethyl)-3-(trifluoromethyl)-1H-pyrrolo[2,3-b]pyridine-4,6-diamine], the IC50 (against human GST-CLK1 (129-end); in assay [1]) was less than 100 nM in each case.

As to `CCNc1cc(Nc2ccc(S(=O)(=O)N3CCC(N4CCOCC4)CC3)c3c2OCCO3)nc2[nH]cc(C(F)(F)F)c12` [Example 96, N^4-ethyl-N^6-(8-((4-morpholonopiperidin-1-yl)sulfonyl)-2,3-dihydrobenzo [b] [1,4]dioxin-5-yl)-3-(trifluoromethyl)-1H-pyrrolo[2,3-b]pyridine-4,6-diamine], the IC50 against human GST-CLK1 (129-end) fell in the range of 101 to 300 nM; in assay [1], 301 to 1000 nM.

For the molecule `CCCNc1cc(Nc2ccc(C(=O)N3CCC(N4CCOCC4)CC3)c3c2OCCO3)nc2[nH]cc(C(F)(F)F)c12` [Example 162, (4-morpholinopiperidin-1-yl)(8-((4-(propylamino)-3-(trifluoromethyl)-1H-pyrrolo[2,3-b]pyridin-6-yl)amino)-2,3-dihydrobenzo[b] [1,4]dioxin-5-yl)methanone], the IC50 was less than 100 nM at human GST-CLK1 (129-end) and 101 to 300 nM in assay [1].

`CNc1cc(Nc2ccc(S(=O)(=O)N3CCC(N4C[C@H]5C[C@@H]4CO5)CC3)cc2OC)nc2[nH]cc(C(F)(F)F)c12` [Example 243, N^6-(4-((4-((1R,4R)-2-oxa-5-azabicyclo[2.2.1]heptan-5-yl)piperidin-1-yl)sulfonyl)-2-methoxyphenyl)-N^4-methyl-3-(trifluoromethyl)-1H-pyrrolo[2,3-b]pyridine-4,6-diamine]: the IC50 (against human GST-CLK1 (129-end); in assay [1]) was less than 100 nM in each case.

On TTK, `O=C(c1ccc(Nc2cc(C3CC3)c3c(C(F)(F)F)c[nH]c3n2)c2c1CCO2)N1CC[C@@H](N2CCOCC2)C1` [Example 238, (R)-(7-((4-cyclopropyl-3-(trifluoromethyl)-1H-pyrrolo[2,3-b]pyridin-6-yl)amino)-2,3-dihydrobenzofuran-4-yl)(3-morpholinopyrrolidin-1-yl)methanone] returned an IC50 of less than 100 nM.

`CNc1cc(Nc2ccc(C(=O)N3CCC(N4CCOCC4)CC3)c3c2OCCO3)nc2[nH]cc(C(F)(F)F)c12` [Example 160, (8-((4-(methylamino)-3-(trifluoromethyl)-1H-pyrrolo[2,3-b]pyridin-6-yl)amino)-2,3-dihydrobenzo [b] [1,4]dioxin-5-yl)(4-morpholinopiperidin-1-yl)methanone]: the IC50 at human GST-CLK1 (129-end) is less than 100 nM; in assay [1], 101 to 300 nM.

As for `O=C(c1ccc(Nc2cc(C3CC3)c3c(C(F)(F)F)c[nH]c3n2)c2c1CCO2)N1CC[C@H](N2CCOCC2)C1` [Example 237, (S)-(7-((4-cyclopropyl-3-(trifluoromethyl)-1H-pyrrolo[2,3-b]pyridin-6-yl)amino)-2,3-dihydrobenzofuran-4-yl)(3-morpholinopyrrolidin-1-yl)methanone], the IC50 at TTK was 101 to 300 nM.

Usually IC50 stands for the midpoint of a concentration-inhibition curve.
